In PubChem BioAssay AID2060340 (Molecular Pharmacology Branch, DTP, NCI, 2025):

Test system: 349418-098-R-PDC spheroids, viability, % test/control
Test: Anticancer human tumor 349418-098-R-PDC patient-derived lung adenocarcinoma cell line growth inhibition [IpAb]
Details: spheroids with HUVEC and MSC; for IC50: curve of first compound; for viability, T/C: stronger effect = lower value
In short: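 Combinations with ipatasertib or abemaciclib were tested on tumour spheroids holding HUVEC (25%) and MSC (15%) alongside 60% malignant cells. Top concentration was at or near clinical Cmax (10 microM if undefined), descending in half-log steps.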
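Also: spheroids exposed to compounds for 7 days.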

For CC(=O)c1c(C)c2cnc(Nc3ccc(N4CCNCC4)cn3)nc2n(C2CCCC2)c1=O + CC(C)NCC(C(=O)N1CCN(c2ncnc3c2C(C)CC3O)CC1)c1ccc(Cl)cc1, which IC50 (second compound 0.1 µM) is on record?
The IC50 was 8.74 nM.

What about the IC50 (second compound 0.316 µM) of the same molecule?
Its IC50 is less than 0.949 nM.

And the IC50 (second compound 1 µM)?
The IC50 was less than 0.949 nM.

What about the IC50 (second compound 3.16 µM) of the same molecule?
Its IC50 is less than 0.949 nM.

What about the IC50 (second compound 10 µM) of the same molecule?
Its IC50 is less than 0.949 nM.

What about the viability, T/C (second compound 0.1 µM, first compound 0.000949 µM) of the same molecule?
The viability, T/C was 76.3%.

What about the viability, T/C (second compound 0.1 µM, first compound 0.003 µM) of the same molecule?
Its viability, T/C is 74.8%.

What about the viability, T/C (second compound 0.1 µM, first compound 0.00949 µM) of the same molecule?
Its viability, T/C is 44%.

And the viability, T/C (second compound 0.1 µM, first compound 0.03 µM)?
The viability, T/C was 29.3%.

What about the viability, T/C (second compound 0.1 µM, first compound 0.0949 µM) of the same molecule?
The viability, T/C was 14.4%.

What about the viability, T/C (second compound 0.1 µM, first compound 0.3 µM) of the same molecule?
The viability, T/C was 12.1%.

And the viability, T/C (second compound 0.316 µM, first compound 0.000949 µM)?
Its viability, T/C is 40.5%.

What about the viability, T/C (second compound 0.316 µM, first compound 0.003 µM) of the same molecule?
Its viability, T/C is 43.2%.

What about the viability, T/C (second compound 0.316 µM, first compound 0.00949 µM) of the same molecule?
The viability, T/C was 23.8%.

And the viability, T/C (second compound 0.316 µM, first compound 0.03 µM)?
Its viability, T/C is 15.5%.

What about the viability, T/C (second compound 0.316 µM, first compound 0.0949 µM) of the same molecule?
Its viability, T/C is 8.84%.

And the viability, T/C (second compound 0.316 µM, first compound 0.3 µM)?
The viability, T/C was 8.96%.

What about the viability, T/C (second compound 1 µM, first compound 0.000949 µM) of the same molecule?
Its viability, T/C is 19.5%.

And the viability, T/C (second compound 1 µM, first compound 0.003 µM)?
Its viability, T/C is 13.5%.

What about the viability, T/C (second compound 1 µM, first compound 0.00949 µM) of the same molecule?
The viability, T/C was 9.63%.

And the viability, T/C (second compound 1 µM, first compound 0.03 µM)?
The viability, T/C was 7.98%.

What about the viability, T/C (second compound 1 µM, first compound 0.0949 µM) of the same molecule?
The viability, T/C was 7.69%.

What about the viability, T/C (second compound 1 µM, first compound 0.3 µM) of the same molecule?
Its viability, T/C is 7.53%.

And the viability, T/C (second compound 3.16 µM, first compound 0.000949 µM)?
The viability, T/C was 11.4%.

And the viability, T/C (second compound 3.16 µM, first compound 0.003 µM)?
The viability, T/C was 9.48%.

What about the viability, T/C (second compound 3.16 µM, first compound 0.00949 µM) of the same molecule?
Its viability, T/C is 8.85%.

And the viability, T/C (second compound 3.16 µM, first compound 0.03 µM)?
The viability, T/C was 6.09%.

And the viability, T/C (second compound 3.16 µM, first compound 0.0949 µM)?
The viability, T/C was 6.21%.

What about the viability, T/C (second compound 3.16 µM, first compound 0.3 µM) of the same molecule?
Its viability, T/C is 7.07%.

And the viability, T/C (second compound 10 µM, first compound 0.000949 µM)?
Its viability, T/C is 7.89%.

What about the viability, T/C (second compound 10 µM, first compound 0.003 µM) of the same molecule?
Its viability, T/C is 6.96%.

And the viability, T/C (second compound 10 µM, first compound 0.00949 µM)?
Its viability, T/C is 5.33%.

And the viability, T/C (second compound 10 µM, first compound 0.03 µM)?
The viability, T/C was 5.56%.

What about the viability, T/C (second compound 10 µM, first compound 0.0949 µM) of the same molecule?
Its viability, T/C is 5.75%.

What about the viability, T/C (second compound 10 µM, first compound 0.3 µM) of the same molecule?
Its viability, T/C is 5.61%.
